Assays:
[1] = Unidirectional Caco-2 cell permeability assay; format: in vitro ADME; settings: human, apical pH 6.5, basolateral pH 7.4, 1 hour, 37° C., n=2
Method: Caco-2 cells (ECACC) were seeded onto 24-well Transwell plates at 2×10^5 cells per well and used in confluent monolayers after a 21 day culture at 37° C. under 500 CO2. Test compounds were incubated at 10 μM, 0.2% DMSO final, n=2 in assay buffer (Hanks balanced salt solution supplemented with 25 mM HEPES, adjusted to pH 6.5). Hanks balanced salt solution supplemented with 25 mM HEPES, adjusted to pH 7.4 (0.2% DMSO final) was used for the basolateral chamber (as receiver).
Incubations were performed at 37° C., with samples removed from both donor and acceptor chambers at T=0 and 1 hour and compound analysed by mass spectrometry (LC-MS/MS) including an analytical internal standard ([…] carbamazepine).
Apparent permeability (Papp) values are shown in Table 3 and were determined from the relationship:
Where V is the volume of each Transwell compartment (apical 125 μL, basolateral 600 μL), and concentrations are the relative MS responses for compound (normalized to internal standard) in the donor chamber before incubation and acceptor chamber at the end of the incubation Area=area of cells exposed for drug transfer (0.33 cm^2).
Lucifer Yellow (LY) was added to the apical buffer in all wells to assess viability of the cell layer. As LY cannot freely permeate lipophilic barriers, a high degree of LY transport indicates poor integrity of the cell layer and wells with a LY Papp>10×10^−6 cm/s were rejected.
Compound recovery from the wells was determined from MS responses (normalized to internal standard) in donor and acceptor chambers at the end of incubation compared to response in the donor chamber pre-incubation.

[2] = biological target: T1, human EP4 (Homo sapiens, UniProt P35408); assay: cAMP Gs functional assay (HTRF cAMP dynamic-2) in EP4-transfected HEK293 cells; format: cell-based; settings: HEK293 cells transfected with EP4 BacMam virus; for EC50: 30 min at 37° C., HTRF cAMP, read-out: cAMP human EP4 pEC50 (converted); for cAMP human EP4 Emax: positive control PGE2
T1 construct: expressed in transfected cells; host or cells: HEK293 cells transduced with EP4 BacMam baculovirus
Method: Cloning, Baculovirus generation, large scale infection of HEK293 cells and membrane preparation: Human prostaglandin E2 receptor 4 (EP4) was cloned into pBacMam expression vector (GeneScript, UK). Transposition of EP4 DNA was performed using Invitrogen's Bac-to-Bac Baculovirus Expression Systems. P0 baculovirus was generated by transfecting SF9 Cells with bacmid DNA using Cellfectin II transfection reagent (ThermoFisher Scientific, UK). Following P0 generation P1 virus was then generated ready for large scale infection and membrane preparation. HEK293 cells were grown in DMEM (ThermoFisher Scientific, UK), supplemented with 10% heat inactivated fetal bovine serum (FBS). Cells were infected at a seeding density of 3.5 million cells/mL in 500 cm^3 flasks at 5% v/v EP4 Bacman. Expression was carried out over a 36 hour period at 37° C. with 5% CO2. The cells were removed using PBS and a cell scrapper. The cell culture was centrifuged at 2500 RPM for 10 mins at 4° C. The supernatant was then poured off and the pellet stored at −80° C. The pellet was defrosted and re-suspended in 15 mL of homogenising buffer (20 mM HEPES, 10 mM EDTA, pH 7.4). Then homogenised in mechanical homogeniser (VMR) for 10 seconds. The membrane was centrifuged in centrifuge tubes at 40,000 g for 15 mins at 4° C. The supernatant was poured away and re-suspended in 15 mL of homogenising buffer and homogenised for 20 seconds. The membrane was then centrifuged at 40,000 g for 45 mins at 4° C. The membrane was then re-suspended in 3 mL of storage buffer (20 mM HEPES, 0.1 mM EDTA, pH 7.4) mixing well. The resulting membranes were then stored at −80° C.
cAMP Gs Functional Assay: cAMP production following EP4 receptor activation was determined using the Homogeneous Time-Resolved Fluorescence (HTRF) cAMP dynamic-2 assay (Cisbio, France). HEK293 cells were transfected using a 0.5% EP4 Bacman virus for 36 hours, before dissociating the cells, and freezing at −150° C.
On the day of testing, increasing concentration of test compounds, alongside positive controls ([…] PGE2 (Tocris, Abingdon, UK)) and negative control (DMSO (Sigma-Aldrich, UK) were added to a ProxiPlate-384 Plus, White 384-shallow well Mircoplate, (PerkinElmer, USA) using the ECHO dispense.
Cells were defrosted in a water bath and resuspended in DMEM supplemented with 10% FBS before centrifuging at 1200 RPM for 5 mins to form a pellet. The pellet was resuspended in assay buffer (DMEM+0.5 mM IBMX (Tocris, Abingdon, UK)) to 0.5×10^6 cells/mL. Cell suspension, for a final assay concentration of 5000 cell/well was added using the multidrop to the pre-dispensed assay plate. The plate was then incubated at 37° C. for 30 mins, with 5% CO2. The cAMP production was determined as manufacturer's instructions, before plates were read on a PheraStar fluorescence plate reader (BMG LabTech, Germany).

T1 sequence (P35408 whole entry): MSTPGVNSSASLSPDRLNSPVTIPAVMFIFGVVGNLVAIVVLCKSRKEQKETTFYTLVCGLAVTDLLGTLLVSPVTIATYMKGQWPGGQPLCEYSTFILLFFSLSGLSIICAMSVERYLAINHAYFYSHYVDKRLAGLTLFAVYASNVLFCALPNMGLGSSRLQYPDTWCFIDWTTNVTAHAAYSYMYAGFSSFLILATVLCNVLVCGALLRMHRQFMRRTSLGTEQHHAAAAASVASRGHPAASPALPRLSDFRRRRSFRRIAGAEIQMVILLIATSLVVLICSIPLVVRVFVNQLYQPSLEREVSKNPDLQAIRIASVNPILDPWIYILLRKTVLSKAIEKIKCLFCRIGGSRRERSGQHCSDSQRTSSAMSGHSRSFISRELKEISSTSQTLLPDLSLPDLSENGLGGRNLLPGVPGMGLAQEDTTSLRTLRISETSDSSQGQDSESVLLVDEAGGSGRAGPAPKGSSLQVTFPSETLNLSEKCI

Row | Compound | Papp A→B at 1 h, 10 μM [1] | EC50 [2] | cAMP human EP4 Emax [2]
1 | Cc1cc(S(N)(=O)=O)ccc1-c1cccc(CN2C[C@H](O)C[C@@H]2C(=O)N[C@@H](C)c2ccc(C(=O)O)cc2)c1 [Example 4, 4-((S)-1-((2R,4R)-4-hydroxy-1-((2′-methyl-4′-sulfamoyl-[1,1′-biphenyl]-3-yl)methyl)pyrrolidine-2-carboxamido)ethyl)benzoic acid] | 0.26 ×10⁻⁶ cm/s | 158 nM | 98%
2 | Cc1cc(S(N)(=O)=O)ccc1-c1cccc(CN2CCC[C@@H]2C(=O)NCc2ccc(C(=O)O)c(O)c2)c1 [Example 16, (R)-2-hydroxy-4-((1-((2′-methyl-4′-sulfamoyl-[1,1′-biphenyl]-3-yl)methyl)pyrrolidine-2-carboxamido)methyl)benzoic acid] | 0.17 ×10⁻⁶ cm/s | 20 nM | 98%
3 | C[C@H](NC(=O)[C@H]1CCCN1Cc1cccc(-c2ccc(O)cc2C#N)c1)c1ccc(C(=O)O)cc1 [Example 8, 4-((S)-1-((R)-1-((2′-cyano-4′-hydroxy-[1,1′-biphenyl]-3-yl)methyl)pyrrolidine-2-carboxamido)ethyl)benzoic acid] | 2.1 ×10⁻⁶ cm/s | 31.6 nM | 74%
4 | Cc1cc(S(N)(=O)=O)ccc1-c1cncc(CN2CCC[C@@H]2C(=O)N[C@@H](C)c2ccc(C(=O)O)cc2)c1 [Example 24, 4-((S)-1-((R)-1-((5-(2-methyl-4-sulfamoylphenyl)pyridin-3-yl)methyl)pyrrolidine-2-carboxamido)ethyl)benzoic acid] | 0.16 ×10⁻⁶ cm/s | 25.1 nM | 99%
5 | C[C@H](NC(=O)[C@H]1CCCN1Cc1ccc(O)c(-c2ccc(C(N)=O)cc2)c1)c1ccc(C(=O)O)cc1 [Example 12, 4-((S)-1-((R)-1-((4′-carbamoyl-6-hydroxy-[1,1′-biphenyl]-3-yl)methyl)pyrrolidine-2-carboxamido)ethyl)benzoic acid] | 0.26 ×10⁻⁶ cm/s | 7.94 nM | 89%
6 | C[C@H](NC(=O)[C@H]1CCCN1Cc1cccc(-c2ccc(S(N)(=O)=O)cc2O)c1)c1ccc(C(=O)O)cc1 [Example 22] | < 0.1 ×10⁻⁶ cm/s | 126 nM | 85%
7 | C[C@H](NC(=O)[C@H]1CCCN1Cc1cccc(-c2ccc(C(N)=O)cc2O)c1)c1ccc(C(=O)O)cc1 [Example 11, 4-((S)-1-((R)-1-((4′-carbamoyl-2′-hydroxy-[1,1′-biphenyl]-3-yl)methyl)pyrrolidine-2-carboxamido)ethyl)benzoic acid] | 0.18 ×10⁻⁶ cm/s | 20 nM | 92%
8 | Cc1cc(S(N)(=O)=O)ccc1-c1cccc(CN2CC3CC2(C(=O)N[C@@H](C)c2ccc(C(=O)O)cc2)C3)c1 [Example 32, (S)-4-(1-(2-((2′-methyl-4′-sulfamoyl-[1,1′-biphenyl]-3-yl)methyl)-2-azabicyclo[2.1.1]hexane-1-carboxamido)ethyl)benzoic acid] | – | 0.398 nM | 90%
9 | Cc1cc(C(N)=O)ccc1-c1cncc(CN2C[C@H](O)C[C@@H]2C(=O)N[C@@H](C)c2ccc(C(=O)O)cc2)c1 [Example 25, 4-((S)-1-((2R,4R)-1-((5-(4-carbamoyl-2-methylphenyl)pyridin-3-yl)methyl)-4-hydroxypyrrolidine-2-carboxamido)ethyl)benzoic acid] | – | 1260 nM | 91%
10 | Cc1cc(C(N)=O)ccc1-c1cccc(CN2CCC[C@@H]2C(=O)N[C@@H](C)c2ccc(C(=O)O)c(O)c2)c1 [Example 17, 4-((S)-1-((R)-1-((4′-carbamoyl-2′-methyl-[1,1′-biphenyl]-3-yl)methyl)pyrrolidine-2-carboxamido)ethyl)-2-hydroxybenzoic acid] | – | 63.1 nM | 97%
11 | Cc1cc(C(N)=O)ccc1-c1cc(CN2CCC[C@@H]2C(=O)N[C@@H](C)c2ccc(C(=O)O)cc2)c[n+]([O-])c1 [Example 26, 3-(4-carbamoyl-2-methylphenyl)-5-(((R)-2-(((S)-1-(4-carboxyphenyl)ethyl)carbamoyl)pyrrolidin-1-yl)methyl)pyridine 1-oxide] | – | > 1000 nM | –

— patent US20260042745A1, “PYRROLIDINE-2-CARBOXAMIDE DERIVATIVES AS PROSTAGLANDIN E2 RECEPTOR 4 (EP4) AGONISTS FOR THE TREATMENT OF GASTROINTESTINAL AND PULMONARY DISEASES” (NXERA PHARMA UK LIMITED, priority 2022, published 2026)
